The record followed here is ChEMBL document CHEMBL1147695, “Synthesis and in vitro evaluation of N-substituted aza-trozamicol analogs as vesicular acetylcholine transporter ligands” (Bioorg Med Chem Lett, 2006).

In the assay the target is T1, Vesicular acetylcholine transporter (Homo sapiens, UniProt Q16572).
T1 sequence (Q16572 whole entry): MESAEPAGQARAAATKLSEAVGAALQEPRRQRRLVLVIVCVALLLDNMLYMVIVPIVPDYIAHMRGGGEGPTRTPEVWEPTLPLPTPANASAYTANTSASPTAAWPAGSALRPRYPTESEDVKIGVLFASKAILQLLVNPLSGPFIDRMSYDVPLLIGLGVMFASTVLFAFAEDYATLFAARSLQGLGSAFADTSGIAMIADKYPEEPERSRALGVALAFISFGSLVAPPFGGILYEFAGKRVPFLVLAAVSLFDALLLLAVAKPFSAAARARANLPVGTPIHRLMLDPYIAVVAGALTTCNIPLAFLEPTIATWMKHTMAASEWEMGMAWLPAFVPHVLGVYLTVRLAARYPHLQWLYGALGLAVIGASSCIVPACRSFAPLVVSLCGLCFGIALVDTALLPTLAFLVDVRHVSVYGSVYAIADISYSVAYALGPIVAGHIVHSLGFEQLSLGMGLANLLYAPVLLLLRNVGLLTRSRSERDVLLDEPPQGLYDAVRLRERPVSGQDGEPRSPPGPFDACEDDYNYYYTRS
The assay is described as follows: Displacement of [3H]vesamicol from human VAChT transfected in PC12 cell line. The class given is cell-based, PC-12.
For `C/C=C/CN1CCC(O)C(N2CCN(c3ccccc3)CC2)C1` (configuration not stated), the IC50 is more than 100 nM.

With `C#CCN1CCC(O)C(N2CCN(c3ccccc3)CC2)C1` (configuration not stated), the IC50 was more than 100 nM.

Turning to `C=CCN1CCC(N2CCN(c3ccccc3)CC2)C(O)C1` (configuration not stated), the IC50 was more than 100 nM.

`C=C(C)CN1CCC(N2CCN(c3ccccc3)CC2)C(O)C1` (configuration not stated) yielded an IC50 of more than 100 nM.

For the compound `C=CCN1CCC(O)C(N2CCN(c3ccccc3)CC2)C1` (configuration not stated), the IC50 is more than 100 nM.

In turn, `OC1CCN(Cc2ccccc2Br)CC1N1CCN(c2ccccc2)CC1` (configuration not stated) registered an IC50 of 47 nM. In other words, the double-digit nanomolar range.

As for `OC1CCN(C/C=C/I)CC1N1CCN(c2ccccc2)CC1` (configuration not stated), the IC50 was more than 100 nM.

Take `CCN1CCC(O)C(N2CCN(c3ccccc3)CC2)C1` (configuration not stated): the IC50 was more than 1000 nM.

`OC1CN(Cc2ccccc2Br)CCC1N1CCN(c2ccccc2)CC1` (configuration not stated) returned an IC50 of 11 nM.

`OC1CCN(Cc2cccc(Br)c2)CC1N1CCN(c2ccccc2)CC1` (configuration not stated) returned an IC50 of 46 nM.

`OC1CN(Cc2cccc(Br)c2)CCC1N1CCN(c2ccccc2)CC1` (configuration not stated) had an IC50 of 66 nM.

As to `C#CCN1CCC(N2CCN(c3ccccc3)CC2)C(O)C1` (configuration not stated), the IC50 is more than 1000 nM.

`OC1CN(C/C=C/I)CCC1N1CCN(c2ccccc2)CC1` (configuration not stated) came in with an IC50 of more than 100 nM.

Regarding `C/C=C/CN1CCC(N2CCN(c3ccccc3)CC2)C(O)C1` (configuration not stated), the IC50 stood at 100 nM. In other words, the sub-micromolar range.

The compound `OC1CCN(Cc2ccc(Br)cc2)CC1N1CCN(c2ccccc2)CC1` (configuration not stated) came in with an IC50 of more than 100 nM.

`OC1CN(Cc2ccccc2)CCC1N1CCN(c2ccccc2)CC1` (configuration not stated): the IC50 came to 57 nM.

`OC1CCNCC1N1CCN(c2ccccc2)CC1` (configuration not stated) yielded an IC50 of more than 100 nM.

`OC1CCN(Cc2ccccc2)CC1N1CCN(c2ccccc2)CC1` (configuration not stated) showed an IC50 of more than 100 nM.

For `OC1CNCCC1N1CCN(c2ccccc2)CC1` (configuration not stated), the IC50 amounted to 100 nM.

`OC1CN(Cc2ccc(Br)cc2)CCC1N1CCN(c2ccccc2)CC1` (configuration not stated) yielded an IC50 of more than 100 nM.

In turn, `CCN1CCC(N2CCN(c3ccccc3)CC2)C(O)C1` (configuration not stated) had an IC50 of more than 1000 nM.

Consider `C=C(C)CN1CCC(O)C(N2CCN(c3ccccc3)CC2)C1` (configuration not stated), for which the IC50 is more than 100 nM.
